# Measurements reported in BigSolDB 2.1.
compound,measurement,setting,value
O=C(Nc1ccccc1-c1ccc(Cl)cc1)c1cccnc1Cl,solubility (mole fraction),"in ethanol, 288.15 K",0.00163
same,solubility (mole fraction),"in ethanol, 293.15 K",0.00194
same,solubility (mole fraction),"in ethanol, 298.15 K",0.0023
same,solubility (mole fraction),"in ethanol, 303.15 K",0.00282
same,solubility (mole fraction),"in ethanol, 308.15 K",0.00346
same,solubility (mole fraction),"in ethanol, 313.15 K",0.00428
same,solubility (mole fraction),"in ethyl acetate, 288.15 K",0.0076
same,solubility (mole fraction),"in ethyl acetate, 293.15 K",0.00879
same,solubility (mole fraction),"in ethyl acetate, 298.15 K",0.0102
same,solubility (mole fraction),"in ethyl acetate, 303.15 K",0.0117
same,solubility (mole fraction),"in ethyl acetate, 308.15 K",0.0141
same,solubility (mole fraction),"in ethyl acetate, 313.15 K",0.0168
same,solubility (mole fraction),"in isopropanol, 288.15 K",0.000816
same,solubility (mole fraction),"in isopropanol, 293.15 K",0.000983
same,solubility (mole fraction),"in isopropanol, 298.15 K",0.00124
same,solubility (mole fraction),"in isopropanol, 303.15 K",0.00162
same,solubility (mole fraction),"in isopropanol, 308.15 K",0.002
same,solubility (mole fraction),"in isopropanol, 313.15 K",0.00251
same,solubility (mole fraction),"in methanol, 288.15 K",0.00186
same,solubility (mole fraction),"in methanol, 293.15 K",0.0022
same,solubility (mole fraction),"in methanol, 298.15 K",0.0026
same,solubility (mole fraction),"in methanol, 303.15 K",0.00315
same,solubility (mole fraction),"in methanol, 308.15 K",0.00394
same,solubility (mole fraction),"in methanol, 313.15 K",0.0047
same,solubility (mole fraction),"in n-propyl acetate, 288.15 K",0.00718
same,solubility (mole fraction),"in n-propyl acetate, 293.15 K",0.00822
same,solubility (mole fraction),"in n-propyl acetate, 298.15 K",0.00943
same,solubility (mole fraction),"in n-propyl acetate, 303.15 K",0.0112
same,solubility (mole fraction),"in n-propyl acetate, 308.15 K",0.0135
same,solubility (mole fraction),"in n-propyl acetate, 313.15 K",0.016
